In article PMC9953224, “Pharmacokinetic Evaluation of New Drugs Using a Multi-Labelling Approach and PET Imaging: Application to a Drug Candidate with Potential Application in Neuromuscular Disorders” (Biomedicines, 2023):
Entries after “also recorded” stand apart in the source; their conditions may differ. Like-named read-outs stand apart in the source and are kept apart here.

Columns and labels:
[1] = molecular target: T1, FKBP12/RyR interaction (Homo sapiens, UniProt P62942); test: In situ proximity ligation assay (PLA) in human myotubes under nitro-oxidative stress; type: cell-based; conditions: human myotubes challenged with peroxynitrite donor SIN1 (5 mM, 30 min)
T1 construct: endogenous in cells; host or cells: immortalized human myoblasts differentiated into myotubes
Experimental: In situ PLA was used for evaluation of FKBP12/RyR stability in human myotubes under nitro-oxidative stress, as previously described. Briefly, immortalized human myoblasts (Myology Institute, Paris, France) were differentiated into myotubes and nitro-oxidative stress was induced by addition of the peroxynitrite donor 3-morpholinosydnonimine (SIN1, 5 mM, SCBT, Heidelberg, Germany) for 30 min. Myotubes were fixed with 4% paraformaldehyde (Aname, Madrid, Spain) and incubated overnight with the following primary antibodies: anti-RyR mouse mAb (1:200, Thermo Scientific, Waltham, MA, USA), and anti-FKBP12 rabbit pAb (1:100, Novus Biologicals, Centennial, CO, USA). The Duolink in situ PLA Orange assay kit was used with corresponding conjugated secondary antibodies (Sigma). Samples were counterstained with FITC-conjugated Myosin Heavy Chain-CFS mAb (MyHC, 1:50, R&D, Minneapolis, MN, USA) and mounted with ProLong Gold antifade reagent (Life Technologies, Eugene, OR, USA). Image quantification was performed with ImageJ (NIH). For each image, the total number of spots was normalized to the MyHC area. At least 3 images per condition were analysed with an average of 8–9 myotubes per image. Statistical significance was determined using One-Way ANOVA followed by Dunett’s multiple comparisons test. p-values < 0.05 were considered statistically significant.

[2] = Pharmacokinetics from metabolite-corrected arterial plasma TACs after intravenous administration; type: in vivo, Sprague Dawley Rats; conditions: for MRT / Vd / half-life: Sprague Dawley, rat, arterial plasma; for MRT: read-out: MRT mean residence time (converted); for Vd / half-life: iv; for half-life: read-out: t1/2 terminal half-life
Experimental: Anaesthesia was induced with 5% isoflurane (IsoFlo®, Abbott Laboratories, Abbott Park, IL, USA) and maintained by 2% of isoflurane in 100% O2. During the experiment, rats were kept normothermic using a heating blanket (Homeothermic Blanket Control Unit; Bruker). The rat was positioned in supine position on an operating table and the two distal hind limbs were fixed forming an approximately 30° angle with the horizontal plane. The surgical region was scrubbed using Betadine, starting in the centre, and making a circular sweep outward. A skin incision was made in the femoral region. Soft tissue was dissected to expose the femoral neurovascular bundle, consisting of femoral vein, artery, and nerve. Fine tip forceps were placed between the artery, vein and nerve and were slowly opened to separate the vessels, exposing an approximately 1 cm length section of artery/vein. The vena profunda femoris was sutured to avoid retrograde bleeding via this vessel, and the sapheno-femoral junction was cauterized. A few millimetres from venatomy, a vascular clip was inserted in the direction of the catheter (to control the flow) and a suture was applied in the opposite direction (to avoid retrograde bleeding). The same operation was carried out both on the femoral vein and femoral artery. An appropriate syringe filled with 50 U/mL Heparin/physiologic saline solution was fixed at the terminus of the catheters and these were filled with heparinized saline solution. On the upper half of the vessel circumference, at a 45° angle, an incision was made and the catheter (fine bore polythene tubing: ID 0.58 mm, OD 0.98 mm) was inserted through the venotomy and advanced to the vascular clip. The vascular clip was then removed, and the catheter advanced distally towards the level of the inguinal ligament. The catheter was finally secured to the femoral vein/artery proximally and distally with 2 single knots using 4–0 braided silk suture. The catheters were connected to an in-house developed system composed by a peristaltic pump and gamma-radiation coincidence detector (Bioscan, B-FC-4100). The femoral artery catheter, the gamma detector, the peristaltic pump, and the femoral vein catheter were thus connected in series, to enable the extracorporeal circulation of blood (flow 150 μL/s from femoral artery to femoral vein) and continuous measurement of radioactivity in the blood (Figure 1).
The labelled compounds were administrated two different ways: (i) intravenous bolus infusion (ca. 37 MBq in 300 μL of saline solution was injected through the femoral vein catheter) and (ii) oral bolus administration. For oral administration, animals were fasted for 5 h. The radioactive dose (ca. 74 MBq in 300 μL of saline solution) was administered using flexible 20-gauge disposable flexible PTFE feeding needles (Fine Science Tools, F.S.T.) and a small animal Laryngoscope (Penn-Century, Model LS-2) for the correct visualization of the oesophagus. The study was conducted under no carrier added (NCA, dose adjusted to 1 μg/Kg) and carrier added (CA, dose adjusted to 5 mg/Kg) conditions. In all cases, data were imported in real time to an excel sheet using PLX-DAX add-on for Microsoft Excel (measured in volts per second).
Arterial blood samples (1 per animal) were withdrawn (see Figure 1) from the femoral artery catheter and introduced into a capillary (Microhaematocrit capillaries 75 × 1.55, Nahita). Samples were centrifuged at 11,000× g […] for 10 min and the haematocrit was determined. A second blood sample was withdrawn and the amount of radioactivity of a fixed volume (10 µL) was measured in an automatic gamma counter (2470 Wizard, PerkinElmer) to determine Cb (concentration of radioactivity in blood) and convert data imported with PLX-DAX (Volts per seconds) into Bq/s using a previously determined calibration curve. Values were then expressed as percentage of injected dose per gram of blood (% ID/g). […]

[3] = molecular target: T2, FKBP12 (Homo sapiens, UniProt P62942); test: Competitive ligand binding assay (FKBP/FRB NanoBiT luminescence protein complementation) in HEK293 cells; type: cell-based
T2 construct: host or cells: HEK293
T2 sequence (P62942 whole entry): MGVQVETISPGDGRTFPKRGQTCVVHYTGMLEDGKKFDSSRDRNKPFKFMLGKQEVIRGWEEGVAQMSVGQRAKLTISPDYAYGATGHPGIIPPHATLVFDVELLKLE
Experimental: Briefly, HEK293 (ATCC) cells were transfected with FKBP/FRB NanoBiT Control Pair (Promega, Madison, WI, USA) and kinetic measurements were performed 24 h after transfection with Nano-Glo Live Cell Reagent (Promega), as described by the manufacturer. A total of 30 nM rapamycin (Sigma-Aldrich, Madrid, Spain) and AHK2 (1 μM–10 mM) was sequentially added and each effect was recorded for 10 min. Specific activity was normalized to vehicle, and IC50 was calculated using GraphPad Prism by fitting the data to a four-parameter logistic curve.

[4] = 1 ug/kg, intravenous, 1 µg/Kg, n = 5
[5] = intravenous, both groups (1 µg/Kg and 5 mg/Kg) pooled together

## COc1ccc(SCc2cn(CCN(C)C)nn2)cc1 [AHK2, 1-[2-(N,N-dimethylamino)ethyl]-4-[(4-methoxyphenyl)thiomethyl]-1H-1,2,3-triazole]
[1]
  increase of FKBP12/RyR interaction (stabilization): 89%
[2]; [4]
  MRT: 8.48 min
  half-life: 11.7 ± 3.22 min
[2]; 1 ug/kg, intravenous, 1 µg/Kg, n = 5, read-out: Vss volume of distribution at the steady state
  Vd: 1.03 ± 0.695 L
[2]; 1 ug/kg, intravenous, 1 µg/Kg, n = 5, read-out: Vz volume of distribution based on the terminal slope
  Vd: 2 ± 0.43 L
[2]; 5 mg/kg, intravenous, 5 mg/Kg, n = 5, read-out: Vss volume of distribution at the steady state
  Vd: 1.13 ± 0.443 L
[2]; 5 mg/kg, intravenous, 5 mg/Kg, n = 5, read-out: Vz volume of distribution based on the terminal slope
  Vd: 2.34 ± 0.609 L
[2]; 5 mg/kg, intravenous, 5 mg/Kg, n = 5
  half-life: 13.6 ± 3.42 min
[2]; both groups (1 µg/Kg and 5 mg/Kg) pooled together, read-out: Vss volume of distribution at the steady state
  Vd: 1.08 ± 0.809 L
[2]; both groups (1 µg/Kg and 5 mg/Kg) pooled together, read-out: Vz volume of distribution based on the terminal slope
  Vd: 2.17 ± 1.13 L
[2]; both groups (1 µg/Kg and 5 mg/Kg) pooled together
  half-life: 12.6 ± 3.3 min
[2]; intravenous, 5 mg/Kg, n = 5
  MRT: 8.59 min
  AUC area under the curve: 59.39 ± 19.76 %IDxs/mL
  Cl plasma clearance: 1.87 ± 0.73 mL/s
[2]; [5]
  MRT: 8.53 min
  AUC area under the curve: 56.69 ± 15.36 %IDxs/mL
  Cl plasma clearance: 1.89 ± 0.55 mL/s
  t1/2 terminal half-life: 12.63 ± 3.29 min
[2]; intravenous, 1 µg/Kg, n = 5
  AUC area under the curve: 53.99 ± 11.04 %IDxs/mL
  Cl plasma clearance: 1.91 ± 0.41 mL/s
[3]; 30 nM rapamycin, AHK2 1 μM–10 mM, read-out: IC50, displacement of rapamycin from FKBP12 (inhibition of FKBP12-Rapamycin-FRB interaction)
  IC50: 2980 µM
[3]; rapamycin 30 nM
  induction of FKBP12/FRB dimerization (luminescence): did not induce FKBP12/FRB dimerization; also recorded: not able to induce FKBP12/FRB dimerization
